In data set [1] the test system is C57Bl/6 mice, MPTP-induced model of PD. In words: Mouse MPTP model of Parkinson's Disease, open field locomotor assay. It counts as in vivo. To be noted: 300 mg/kg PO QD Day -2 to Day 7, MPTP 60 mg/kg, Day 7. The source says:
Animals. Species: Mouse. Strain: C57Bl/6. Source of Animals: Charles River. Age: 6 to 7 weeks. Sex: Male. Randomization: Animals were assigned randomly to treatment groups. Blinding of Study: Experimenters were blinded to the experimental treatments
Housing and Feeding. Acclimation/Conditioning: Not less than three days. Housing: Mice were housed on a 12 hr light/dark cycle (lights on 6:00 AM) No more than 4 mice per cage. Ventilated cage rack system. Diet: Standard rodent chow and water ad libitum.
Design Parameters. Route(s) of administration: PO. Dose Volume: PO: 5 mL/kg. Formulation(s): formulated by Melior according to directions from BioElectron. Vehicle-sesame oil (Spectrum Chemical, NF Catalog #SE130, CAS #8008-74-0). Dose Levels: 300 mg/kg. Dose Frequency: QD starting Day −2 (MPTP=Day 0) and until Day 7. Study duration: 11 days. Pretreatment time (up to 2 hrs): For Day 0 (MPTP Day): 30 min, Pretreatment time for Open Field Assay/Locomotor Activity (OFA/LMA) assay: 1 hr. Number of Groups: 3. Number of animals per group: 10. Total number of animals: 30 (in the study), 42 animals total (To ensure a proper power analysis of at least 10 animals/group, for all groups receiving MPTP, 4 additional animals were added to mitigate study impacts if there were MPTP-induced fatalities).
MPTP Treatment. MPTP was formulated in phosphate buffered saline and administered to mice three times at a dose of 20 mg/kg (1 mg/mL delivered at 20 mL/kg) at two-hour intervals (final dose of MPTP=60 mg/kg).
Locomotor activity. One day prior (baseline) and on Day 7 after MPTP administration (Day (−1) and Day 7), mice were monitored for various aspects of locomotor function using a fully automated open-field apparatus (Med-Associates, Inc). The apparatus consisted of a 10.75″×10.75″ arena enclosed in a sound-attenuated box, equipped with the fan and house light. […]
Data analysis. Data were averaged and are expressed as the average±SEM.
Data were analyzed by one-way ANOVA followed by a post-hoc tests. p-values of less than 0.05 were considered to be statistically significant from control.

For data set [2], the system named is AD patient fibroblasts AG04402. The data set is described as follows: Rescue of AD patient fibroblasts from BSO plus iron-induced oxidative stress, AG04402. It counts as cell-based. Conditions: Homo sapiens, Fibroblast. On the procedure:
An initial screen was performed to identify the effectiveness of compounds for the amelioration of PD and AD. Test samples and solvent controls were tested for their ability to rescue PD and AD fibroblasts stressed by addition of L-buthionine-(S,R)-sulfoximine (BSO, a specific inhibitor of GSH synthetase) plus iron (e.g. iron citrate), in a similar manner as that described in Jauslin et al., Hum. Mol. Genet. 11(24):3055 (2002), Jauslin et al., FASEB J. 17:1972-4 (2003), and International Patent Application WO 2004/003565. This specific BSO-mediated cell death was prevented or ameliorated by administration of compounds described herein.
The AD experiments were performed as follows. PD experiments were performed in a similar manner; certain specific conditions are noted below in Table 1A.
MEM (a medium enriched in amino acids and vitamins) and Medium 199 (M199) with Earle's Balanced Salts (EBS), without phenol red, were purchased from Invitrogen. Fetal Calf Serum was obtained from Corning. […]
100 microliters of Calcein AM (1 microM) in PBS+Ca+Mg was then added to each well. […] After that time fluorescence (excitation/emission wavelengths of 485 nm and 525 nm, respectively) was read on a Spectramax fluorescence reader. Data were analyzed using standard four-parameter curve fit algorithms (XLFit or Prism) to determine the EC50 concentration for each compound.

Data set [3] is described as follows: Brain and plasma exposure of C9 in mice after oral dosing. The data set is classed as in vivo. To be noted: mouse, 300 mg/kg PO in sesame oil, C57BL/6 mice. How it is done:
A 300 mg/kg dose of C9 was administered as a sesame oil solution via oral gavage to four C57BL/6 mice. Eight hours after compound administration, plasma and brain exposure were measured (Table 10).

We go through one compound from patent US20230339835A1, “2,3,5-TRIMETHYL-6-NONYLCYCLOHEXA-2,5-DIENE-1,4-DIONE FOR SUPPRESSING AND TREATING ALPHA-SYNUCLEINOPATHIES, TAUOPATHIES, AND OTHER DISORDERS” (PTC THERAPEUTICS, INC., priority 2018, published 2023).

As usually defined, the EC50 is the concentration needed to bring the measured effect to its halfway point.

Like-named read-outs stand apart in the source and are kept apart here.

`CCCCCCCCCC1=C(C)C(=O)C(C)=C(C)C1=O` [Compound C9, 2,3,5-trimethyl-6-nonylcyclohexa-2,5-diene-1,4-dione]: in data set [1] (MPTP+Vehicle vs. MPTP+C9 p<0.001), the “open field locomotor assay (vertical time)” value was “restored vertical time”. In addition, the “open field locomotor assay (vertical counts)” value in data set [1] (MPTP+Vehicle vs. MPTP+C9 p<0.01) is on record as “restored vertical counts”. Further, the EC50 was 5 nM in data set [2] (Iron citrate (100 μM) + BSO (100 μM)) and 12 nM in data set [2] (Iron citrate (200 μM) + BSO (100 μM)). Moreover, the Kp at 8 h in data set [3] (brain and plasma, read-out: Brain:Plasma Ratio) was found to be 7. The concentration at 8 h in data set [3] (brain, read-out: C9 [Brain]) amounted to 27900 ng/g; in data set [3] (plasma, read-out: C9 [Plasma]), 3830 ng/mL.
